Measurements taken from patent US20240366577A1, “CONTROLLED LONG-TERM DRUG DELIVERY AND METHODS THEREOF” (THE JOHNS HOPKINS UNIVERSITY, priority 2021, published 2024).

Assays:
[1] = system: 4T1 tumors; assay: orthotopic parent 4T1 TNBC tumor growth; type: in vivo, BALB/c mice
Description: Namely, 4T1 tumors were treated with either PBS (PBS CONTROL), intraperitoneal (IP) bolus sorafenib (25 mg/kg BW/day) (IP BOLUS), 3 mg IP injected sorafenib crystals (IP CRYSTAL 3 MG), or sorafenib crystals (3 mg: SC CRYSTAL (3 MG); 10 mg: SC CRYSTAL (10 MG)) injected around developed tumors in the subcutaneous (SC) mammary fatpad. Furthermore, to truly test the utility of crystalline sorafenib in treating such an aggressive TNBC model, treatment was carried out retrospectively and only started once tumor volumes reached ˜225-250 mm^3. A positive control liquid-dissolved and daily injected drug treatment group was included, where mice were dosed with a daily bolus of 25 mg sorafenib/kg of mouse BW. […] This may be supported by our prior observation that in the IP compartment, where there is higher 10 liquid turnover as compared to the SC space, crystalline drugs usually have a faster kinetic of release over time.
4T1 or 4T1-luc2 cells were trypsinized using 0.25% Trypsin-EDTA, then diluted with the appropriate complete culture media and spun in a centrifuge at 300 g for 5 min. The supernatant was aspirated, and the pellet was re-suspended in serum-free RPMI 1640. The solution was centrifuged again, and the supernatant aspirated. Re-suspension, centrifugation, and aspiration was repeated once more. 5 mL of RPMI-1640 was then added to the pellet. 10 μL of the cell suspension was removed and mixed with 10 μL of Trypan blue stain 0.4% (ThermoFisher). Cells were counted with a Countess automated cell counter. Cell solutions were centrifuged one more time, the supernatant aspirated, and the pellet resuspended in the amount of RPMI-1640 required to achieve a concentration of 5×10^5 cells/200 μL of media. Tumor cells were then administered orthotopically in naive (and anesthetized) BALB/c mice into the right inguinal mammary fat pad 21 with 200 μL aliquots of the cell suspension, using an insulin syringe. Tumors were measured externally using a digital caliper, and volume was calculated (!″* (length * height) *−length * height). Except in the 4T1-luc2 trial, treatment began once tumors reached an average volume of 220-250 mm3. Experimental end point was deemed when solid tumors reached a volume of no more than 2000 mm3. Tumors were extracted and harvested, half stored in 4% paraformaldehyde diluted from 32% (Cat#50980495, Electron Microscopy Services) with DI H2O, and half frozen in liquid nitrogen, then stored at −80° C.
Once tumors had reached an average volume of ˜220-250 mm^3, mice were administered either subcutaneously or intraperitoneally with 3 or 10 mg of crystalline sorafenib, diameter ˜150-200 μm, suspended in 200 μL of sterile saline using an 18 g needle. […]

[2] = system: choroidal neovascularization (CNV); assay: mouse laser-induced CNV model, fundus fluorescein angiography; type: in vivo; details: two intravitreal doses (14 days before and 1 day after laser) vs saline; p=0.0290 single lesion analysis
Source text: Wet age-related macular degeneration (wet AMD) is a leading cause of blindness in the U.S. and globally, requiring effective treatments, particularly with the use of drugs or treatments that allow sustained management of the disease. Choroidal neovascularization (CNV), or pathologic angiogenesis, is the cause of the visual loss that occurs in wet AMD. Therefore, sorafenib is also a possible treatment for wet AMD, but the effect of the drug when delivered in a liquid form is brief. It has been shown that optimized crystal formulations of sorafenib providing sustained release have the potential to work over a longer period of time. As shown herein, the experiments tested the effect of intravitreal administration of crystal sorafenib vs. vehicle, in saline, of sorafenib in a mouse laser-induced CNV model. FIG. 5 depicts a timeline of an experimental procedure, in accordance with the present disclosure. Crystalline sorafenib, as described herein, was administered to two batches of mice. In the first batch of mice, 16 mice were injected, 14 days before a laser treatment and 1 day after laser treatment. In the second batch of mice, 13 mice were injected 7 days before laser treatment. FIGS. 6A-6D depict charts of fluorescent intensity as measured with the use of fundus fluorescein angiography (FFA), according to the present disclosure. […]

CNC(=O)c1cc(Oc2ccc(NC(=O)Nc3ccc(Cl)c(C(F)(F)F)c3)cc2)ccn1 [crystalline sorafenib, sorafenib]
tumor response (tumor volume) ([1]; single IP injection, 3 mg crystals): less response than 10 mg SC but more than a comparable 3 mg dose injected SC | tumor response (tumor volume) ([1]; single local SC injection, 10 mg crystals, start at ~225-250 mm^3): tumor stasis | tumor response (tumor volume) ([1]; single local SC injection, 2-3 mg crystals, start at ~225-250 mm^3): tumor delays only | CNV (FFA fluorescent intensity) [2]: appears to reduce CNV
